Among the data in ChEMBL document CHEMBL1126802, “Structure-affinity relationship studies on 5-HT1A receptor ligands. 1. Heterobicyclic phenylpiperazines with N4-alkyl substituents” (J Med Chem, 1993) are Ki, pKa and IC50 values, retold here.

Series [1] addresses T1, 5-hydroxytryptamine receptor 1A (Rattus norvegicus, UniProt P19327).
T1 sequence (P19327 whole entry): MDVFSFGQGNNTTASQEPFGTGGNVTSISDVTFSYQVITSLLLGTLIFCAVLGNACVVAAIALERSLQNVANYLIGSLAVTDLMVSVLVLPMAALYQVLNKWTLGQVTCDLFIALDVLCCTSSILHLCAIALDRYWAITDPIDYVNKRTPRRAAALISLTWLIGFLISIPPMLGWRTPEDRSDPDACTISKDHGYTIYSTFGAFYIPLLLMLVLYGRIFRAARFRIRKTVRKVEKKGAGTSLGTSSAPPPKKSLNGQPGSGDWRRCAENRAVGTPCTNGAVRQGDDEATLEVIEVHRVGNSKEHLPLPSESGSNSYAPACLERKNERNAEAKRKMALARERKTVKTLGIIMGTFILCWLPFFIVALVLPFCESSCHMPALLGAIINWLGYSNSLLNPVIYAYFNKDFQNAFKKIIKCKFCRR
Nature of the series: Displacement of radioligand [3H]2-(di-N-propylamino)-8-hydroxytetralin from 5-hydroxytryptamine 1A receptor in rat frontal cortex homogenate. The class given is tissue-based.

A short description of series [2]: Ionization at 20 degree C. It counts as ADME.
The nature of series [3]: Ionization at 30 degree C. It counts as ADME.
Series [4] deals with T1, 5-hydroxytryptamine receptor 1A. Put plainly: Displacement of radioligand [3H]2-(di-N-propylamino)-8-hydroxytetralin from 5-hydroxytryptamine 1A receptor in rat frontal cortex homogenate (experiment 1). The class given is tissue-based.
Series [5] can be described thus: Ionization at 25 degree C. It counts as ADME.
Series [6] is described as follows: Ionization at 37 degree C. It counts as ADME.
The nature of series [7]: Ionization at 45 degree C. The class given is ADME.
Series [8] concerns the target T2, Opioid receptor (Mus musculus, UniProt P42866+P32300+P33534). Put plainly: Tested for displacement of radioligand [3H]-Naloxone from opiate receptor. It counts as protein assay.
Series [9] concerns the target T2, Opioid receptor. Nature of the series: Tested for displacement of radioligand [3H]-Naloxone from opiate receptor; value ranges from 7-10 uM. It counts as protein assay.

The structures appear in SMILES notation.

`CC(C)CN1CCN(c2cccc3ccoc23)CC1`: in series [1], the Ki (in general, a dissociation constant, usually derived from enzyme kinetics or from competition with a known ligand) was 0.064 µM.
As for `Clc1cccc(N2CCNCC2)c1` [CHLOROPHENYLPIPERAZINE], the pKa (commonly the negative logarithm of the acid dissociation constant) was determined as 8.72 in series [2]; 8.46 in series [3]; 8.6 in series [5]; 8.36 in [6]; 8.12 in series [7]. This compound also had a Ki in series [4] of 0.2 µM.
In turn, `CCCCN1CCN(c2cccc3c2OCCO3)CC1` had a Ki in series [1] of 0.012 µM. For the same compound, the pKa amounted to 8.41 in [2] and 8.06 in series [6].
`CCCCCN1CCN(c2cccc3ccoc23)CC1` yielded a Ki in series [1] of 0.00081 µM. The pKa in series [6] was > 7.7.
Consider `CCCCCCCCCN1CCC(C(=O)CC)(c2cccc(O)c2)CC1`, for which the IC50 (as a rule, the concentration needed to halve the response being measured) on Opioid receptor [8] was 700 µM.
Compound `CCCCCCCCCCN1CCN(c2cccc3c2OCCO3)CC1` had a Ki in series [1] of 0.001 µM.
In the case of `CCC(=O)C1(c2cccc(O)c2)CCN(C)CC1` [KETOBEMIDONE], the half-inhibitory concentration (IC50) on Opioid receptor [9] stood at 7 µM.
As to `CCCCCCCCCCN1CCN(c2cccc3ccoc23)CC1`, the Ki in series [1] was found to be 0.008 µM.
With `c1cc(N2CCNCC2)c2occc2c1`, in series [1], the Ki came out at 0.013 µM. The pKa was 8.84 in series [2] and 8.44 in series [6].
As for `CCC(=O)C1(c2cccc(O)c2)CCN(CC)CC1`, the IC50 on Opioid receptor [8] came out at 400 µM.
The compound `CCCN1CCC(C(=O)OCC)(c2ccccc2)CC1` returned an IC50 on Opioid receptor [8] of 4 µM.
For the compound `CCOC(=O)C1(c2ccccc2)CCN(CC)CC1`, the IC50 on Opioid receptor [8] is 5 µM.
On Opioid receptor [8], `CCCCCCCN1CCC(C(=O)CC)(c2cccc(O)c2)CC1` returned an IC50 of 20 µM.
As to `CCCCCN1CCC(C(=O)OCC)(c2ccccc2)CC1`, the IC50 on Opioid receptor [8] came out at 0.4 µM.
For the compound `CCCCCCN1CCN(c2cccc3ccoc23)CC1`, the affinity in [1], expressed as Ki, was 0.00054 µM.
`CN1CCN(c2cccc3ccoc23)CC1`: the affinity in series [1], expressed as Ki, was 0.0081 µM. This compound had a pKa in [6] of 7.54.
Consider `CCCCCCCN1CCC(C(=O)OCC)(c2ccccc2)CC1`, for which the IC50 on Opioid receptor [8] stood at 0.055 µM.
Take `CCCCCN1CCN(c2cccc(Cl)c2)CC1`: the pKa in [2] is > 7.4; in series [3], > 7.5; in series [5] it was > 7.4; in series [6] it was > 7.2; in [7], > 7. In [4], this compound had a Ki of 0.0078 µM.
Regarding `CCCCN1CCC(C(=O)CC)(c2cccc(O)c2)CC1`, at Opioid receptor [8], the IC50 came out at 50 µM.
`COc1ccccc1N1CCNCC1` returned a Ki in [1] of 0.17 µM.
`CCCCCCCCCN1CCC(C(=O)OCC)(c2ccccc2)CC1`: the IC50 at Opioid receptor [8] came to 0.15 µM.
In series [1], `c1cc2c(c(N3CCN(CC4CCCCC4)CC3)c1)OCCO2` showed a Ki of 0.011 µM.
For `CCCCCCCCN1CCN(c2cccc3c2OCCO3)CC1`, the Ki in [1] was 0.00061 µM.
The compound `c1cc(N2CCN(CC3CC3)CC2)c2occc2c1` had a Ki in series [1] of 0.02 µM.
The compound `CCCCCCCCN1CCN(c2cccc3ccoc23)CC1` gave a Ki in [1] of 0.0017 µM.
`CCCCCCCCN1CCC(C(=O)CC)(c2cccc(O)c2)CC1` yielded a concentration for half-maximal inhibition (IC50) at Opioid receptor [8] of 200 µM.
For `c1cc2c(c(N3CCNCC3)c1)OCCO2` [ELTOPRAZINE], the pKa in series [2] worked out at 9.18; in series [3], 8.88; in series [5] it was 8.99; in series [6], 8.74; in [7] it was 8.55.
`CCCCCCCCCCN1CCC(C(=O)CC)(c2cccc(O)c2)CC1`: the IC50 on Opioid receptor [8] turned out to be 500 µM.
As for `c1cc(N2CCN(C3CCCCC3)CC2)c2occc2c1`, in [1], the Ki amounted to 0.064 µM.
On the same count and under the same terms, with `O=C1c2ccccc2S(=O)(=O)N1CCCCN1CCN(c2ncccn2)CC1` [IPSAPIRONE] the figure was 0.0055 µM; with `CC(C)N1CCN(c2cccc3ccoc23)CC1`, 0.056 µM.
As to `c1cc(N2CCN(CC3CCCCC3)CC2)c2occc2c1`, the Ki in series [1] came out at 0.0077 µM.
With `CCN1CCN(c2cccc3c2OCCO3)CC1`, the pKa in series [2] was found to be 8.34; in series [6], 8.
Compound `c1cc2c(c(N3CCN(CCC4CCCCC4)CC3)c1)OCCO2` showed a Ki in [1] of 0.00025 µM.
For the compound `CCCN1CCC(C(=O)CC)(c2cccc(O)c2)CC1`, on Opioid receptor [8], the IC50 came out at 200 µM.
For the compound `CCCN1CCN(c2cccc3c2OCCO3)CC1`, the affinity in series [1], expressed as Ki, was 0.08 µM. In addition, the pKa in series [2] is 8.36; in series [6], 8.02.
Regarding `CCCCCCN1CCN(c2cccc3c2OCCO3)CC1`, the Ki in series [1] is 0.0005 µM.
For `CCCCCN1CCC(C(=O)CC)(c2cccc(O)c2)CC1`, the IC50 at Opioid receptor [8] came to 8 µM.
On to `CCCCCCCCN1CCC(C(=O)OCC)(c2ccccc2)CC1`, for which, at Opioid receptor [8], the IC50 came to 0.03 µM.
For the compound `CCCCN1CCN(c2cccc3ccoc23)CC1`, in series [1], the affinity corresponds to a Ki of 0.0059 µM. In series [6], this compound displayed a pKa of 7.77.
With `CN1CCN(c2cccc3c2OCCO3)CC1`, affinity in [1] was put at a Ki of 0.024 µM. For the same compound, the values for the pKa in series [2] and in series [6] were 8.07 and 7.77, respectively.
`CCCCCN1CCN(c2cccc3c2OCCO3)CC1` yielded a Ki in series [1] of 0.0022 µM. In addition, the pKa in [2] worked out at 8.41; in series [3] it was 8.21; in series [5], 8.27; in [6], 8.06; in [7], 7.91.
Compound `CCCCCCN1CCC(C(=O)CC)(c2cccc(O)c2)CC1` had an IC50 on Opioid receptor [8] of 20 µM.
Compound `CCN1CCN(c2cccc3ccoc23)CC1` had a Ki in series [1] of 0.023 µM. Besides, in series [6], the pKa amounted to 7.79.
As for `CCCCN1CCC(C(=O)OCC)(c2ccccc2)CC1`, at Opioid receptor [8], the IC50 was 0.9 µM.
`CCCN1CCN(c2cccc3ccoc23)CC1` gave a Ki in [1] of 0.029 µM. The same compound gave a pKa in series [6] of 7.84.
Take `CCCCCCN1CCC(C(=O)OCC)(c2ccccc2)CC1`: the IC50 at Opioid receptor [8] was 0.2 µM.
